Data taken from patent US20100137266A1, “TREATMENT OF INSULIN RESISTANCE AND DISORDERS ASSOCIATED THEREWITH” (UNIVERSITETET I OSLO, priority 2006, published 2010).

What was measured:
GLUT1, GLUT3, GLUT4 = assay: mRNA levels of glucose transporters in myotubes by Real-Time RT-PCR; type: cell-based, human; conditions: for GLUT4 mRNA level, increase: 1 μmol/l T0901317 or 10 μmol/l 22-R-HC for 4 days
Description: FIG. 7. Glucose transport is increased in human myotubes after chronic 22-S-HC treatment. Human myoblasts were allowed to differentiate for 2 days, and then exposed to 1 μmol/1 T0901317, 10 μmol/[…]) or 1, 2, 5 and 10 μmol/1 22-S-HC(S-HC) for 4 days. […] (A) Present means for glucose uptake±SEM (n=4). Basal level for control are 1.20±0.24 nmol/mg cell protein. (B) A representative dose-response curve for glucose uptake after 1, 2, 5 and 10 μmol/l 22-S-HC treatment (n=3). (C) Total RNA were reversely transcribed and analyzed by Real-Time RT-PCR. Results are normalized to levels of 36B4 and present means±SEM (n=4-6). Relative expressions of GLUT1, GLUT3, GLUT4, and hexokinase (HK)II, ^ap<0.05 vs control, ^dp<0.05 vs T0901317. RNA isolation and analysis of gene expression by RT-PCR. Myotubes were washed, trypsinized and pelleted before total RNA was isolated by RNeasy Mini kit (Qiagen Sciences, Oslo, Norway) or Agilent Total RNA Mini kit (Matrix, Oslo, Norway) according to the suppliers total RNA isolation protocol. RNA samples were incubated with RNase-free DNase (Qiagen Sciences) for minimum 15 min in an additional step during the RNA isolation procedure. Total RNA (1 μg/μl) was reversely transcribed with […] primers using a Perkin-Elmer Thermal Cycler 9600 (25° C. for 10 min, 37° C. for 1 h, 99° C. for 5 min) and a TaqMan reverse-transcription reagents kit (Applied Biosystems). Real time PCR was performed using an ABI PRISM® 7000 Detection System. DNA expression was determined by SYBR® Green (Applied Biosystems), and primers [36B4 (Acc#M17885), ACSL1 (Acc#NM-001995), ABCA1 (Acc#AF165281), CD36 (Acc#L06850), FAS (Acc#U26644), GAPDH (Acc#J104038/M33197, GLUT4 (Acc#M20747), LXRα (Acc#U22662), LXR (Acc#U07132), Myogenin (Acc#X17651), MyoD (Acc#BC064493), PPARα (Acc#L02932), PPARδ (Acc#BC002715), PPARγ (Acc#L40904), SCD-1 (Acc#AB032261), SREBP1c (Acc#U00968)], GLUT1, (Acc#03195), GLUT3 ([…]) were designed using Primer Express® (Applied Biosystems). Each target gene was quantified in triplicates and carried out in a 25 μl reaction volume according to the suppliers protocol. […]

LXRα = biological target: T1, LXRα (Homo sapiens, UniProt Q13133); conditions: Forman et al.; cited from earlier work
T1 construct: host or cells: CV-1 cells (fibroblasts)
T1 sequence (Q13133 1-447): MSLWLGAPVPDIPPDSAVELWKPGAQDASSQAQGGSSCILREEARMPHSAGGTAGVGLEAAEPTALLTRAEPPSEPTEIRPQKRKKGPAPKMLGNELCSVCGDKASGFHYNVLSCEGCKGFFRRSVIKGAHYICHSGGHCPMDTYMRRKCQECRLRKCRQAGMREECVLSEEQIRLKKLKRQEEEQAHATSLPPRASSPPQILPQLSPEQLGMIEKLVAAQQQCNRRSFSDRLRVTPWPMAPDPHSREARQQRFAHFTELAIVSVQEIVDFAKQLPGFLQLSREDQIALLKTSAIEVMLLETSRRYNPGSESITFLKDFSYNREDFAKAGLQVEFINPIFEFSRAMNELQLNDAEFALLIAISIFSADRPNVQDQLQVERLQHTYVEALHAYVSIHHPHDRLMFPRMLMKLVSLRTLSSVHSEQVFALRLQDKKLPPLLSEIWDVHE

MyoD and myogenin = assay: Expression of MyoD and myogenin and differentiation of myoblasts into myotubes; type: cell-based, human
Procedure: FIG. 1. Expression of MyoD (A) and myogenin (B) during differentiation of myoblasts. During the differentiation process, cells were harvested on day-2 until day 8. Some cell cultures were treated with ±1 μM T0901317 from day 2 until day 6. Equal amount of total RNA from each donor (n=4) were pooled, reversely transcribed and analyzed by Real-Time RT-PCR. Expression of MyoD and myogenin was normalized to GAPDH. RNA isolation and analysis of gene expression by RT-PCR. Myotubes were washed, trypsinized and pelleted before total RNA was isolated by RNeasy Mini kit (Qiagen Sciences, Oslo, Norway) or Agilent Total RNA Mini kit (Matrix, Oslo, Norway) according to the suppliers total RNA isolation protocol. […] DNA expression was determined by SYBR® Green (Applied Biosystems), and primers [36B4 (Acc#M17885), ACSL1 (Acc#NM-001995), ABCA1 (Acc#AF165281), CD36 (Acc#L06850), FAS (Acc#U26644), GAPDH (Acc#J104038/M33197, GLUT4 (Acc#M20747), LXRα (Acc#U22662), LXR (Acc#U07132), Myogenin (Acc#X17651), MyoD (Acc#BC064493), PPARα (Acc#L02932), PPARδ (Acc#BC002715), PPARγ (Acc#L40904), SCD-1 (Acc#AB032261), SREBP1c (Acc#U00968)], GLUT1, (Acc#03195), GLUT3 ([…]) were designed using Primer Express® (Applied Biosystems). Each target gene was quantified in triplicates and carried out in a 25 μl reaction volume according to the suppliers protocol. […]

SMILES | GLUT4 mRNA level, increase (GLUT1, GLUT3, GLUT4) | regulation of LXRα in fibroblasts (CV-1 cells) (LXRα) | expression levels of MyoD and myogenin (MyoD and myogenin; 1 μM from day 2 until day 6) | differentiation of myoblasts into multinucleated myotubes by light microscopy (MyoD and myogenin; with and without LXR agonist treatment, data not shown) | mRNA level of glucose transporter 1 (GLUT1) (GLUT1, GLUT3, GLUT4; treatment for 4 days)
CC(C)CC[C@@H](O)[C@@H](C)[C@H]1CC[C@H]2[C@@H]3CC=C4C[C@@H](O)CC[C@]4(C)[C@H]3CC[C@]12C [Example 22-R-HC, 22-R-hydroxycholesterol] | 4 fold | positively regulates | – | – | –
CC(C)CC[C@H](O)[C@@H](C)[C@H]1CC[C@H]2[C@@H]3CC=C4C[C@@H](O)CC[C@]4(C)[C@H]3CC[C@]12C [Example 22-S-HC, 22-S-hydroxycholesterol] | – | inactive | – | – | –
O=S(=O)(c1ccccc1)N(CC(F)(F)F)c1ccc(C(O)(C(F)(F)F)C(F)(F)F)cc1 [Example T0901317] | 4 fold | – | did not seem to interfere | normal differentiation | tended to increase
